The supplement of paper PMC10307832

How the values were obtained:
Test in all cases: relative viability (nuclei count vs DMSO), 5 days (fraction); higher = more cells survive
LXF-289 = conditions: first compound 4 µM
In short: (§1)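 Relative viability is defined as nuclei in treated wells over nuclei in vehicle wells. Duplicate plates were run and medians reported. Lung cancer cell lines in 1536-well plates were dosed by pin tool one day after seeding, with one drug or with a fixed anchor-drug dose plus five library-drug doses (not always all listed) in √10 steps, and nuclei were counted after 5 days.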

EPLC-272H = test system: EPLC-272H
In short: as §1

NCI-H2085 = test system: NCI-H2085
In short: as §1

NCI-H1915 = test system: NCI-H1915
In short: as §1

LC-2-ad = test system: LC-2-ad
In short: as §1

COR-L 105 = test system: COR-L 105
In short: as §1

NCI-H1975 = test system: NCI-H1975
In short: as §1

A-427 = test system: A-427
In short: as §1

SW 900 = test system: SW 900
In short: as §1

NCI-H1793 = test system: NCI-H1793
In short: as §1

LU99A = test system: LU99A
In short: as §1

HOP-62 = test system: HOP-62
In short: as §1

NCI-H1944 = test system: NCI-H1944
In short: as §1

Structure (SMILES): Clc1ccc(Nc2nnc(Cc3ccncc3)c3ccccc23)cc1 [Vatalanib] + Nc1ncn([C@H]2C[C@H](O)[C@@H](CO)O2)c(=O)n1 [Decitabine] (partner 2 µM)
- relative viability (LXF-289): 0.352
- relative viability (EPLC-272H; first compound 0.04 µM): 0.357
- relative viability (EPLC-272H; first compound 0.1265 µM): 0.342
- relative viability (EPLC-272H; first compound 0.4 µM): 0.35
- relative viability (EPLC-272H; first compound 1.265 µM): 0.356
- relative viability (EPLC-272H; first compound 4 µM): 0.378
- relative viability (NCI-H2085; first compound 0.04 µM): 0.556
- relative viability (NCI-H2085; first compound 0.1265 µM): 0.552
- relative viability (NCI-H2085; first compound 0.4 µM): 0.476
- relative viability (NCI-H2085; first compound 1.265 µM): 0.52
- relative viability (NCI-H2085; first compound 4 µM): 0.527
- relative viability (NCI-H1915; first compound 0.04 µM): 0.251
- relative viability (NCI-H1915; first compound 0.1265 µM): 0.257
- relative viability (NCI-H1915; first compound 0.4 µM): 0.273
- relative viability (NCI-H1915; first compound 1.265 µM): 0.257
- relative viability (NCI-H1915; first compound 4 µM): 0.276
- relative viability (LC-2-ad; first compound 0.04 µM): 0.803
- relative viability (LC-2-ad; first compound 0.1265 µM): 0.753
- relative viability (LC-2-ad; first compound 0.4 µM): 0.768
- relative viability (LC-2-ad; first compound 1.265 µM): 0.776
- relative viability (LC-2-ad; first compound 4 µM): 0.861
- relative viability (COR-L 105; first compound 0.04 µM): 0.722
- relative viability (COR-L 105; first compound 0.1265 µM): 0.706
- relative viability (COR-L 105; first compound 0.4 µM): 0.796
- relative viability (COR-L 105; first compound 1.265 µM): 0.681
- relative viability (COR-L 105; first compound 4 µM): 0.714
- relative viability (NCI-H1975; first compound 0.04 µM): 0.423
- relative viability (NCI-H1975; first compound 0.1265 µM): 0.378
- relative viability (NCI-H1975; first compound 0.4 µM): 0.401
- relative viability (NCI-H1975; first compound 1.265 µM): 0.391
- relative viability (NCI-H1975; first compound 4 µM): 0.397
- relative viability (A-427; first compound 0.04 µM): 0.6
- relative viability (A-427; first compound 0.1265 µM): 0.544
- relative viability (A-427; first compound 0.4 µM): 0.601
- relative viability (A-427; first compound 4 µM): 0.535
- relative viability (SW 900; first compound 0.04 µM): 0.421
- relative viability (SW 900; first compound 0.1265 µM): 0.457
- relative viability (SW 900; first compound 0.4 µM): 0.447
- relative viability (SW 900; first compound 1.265 µM): 0.423
- relative viability (SW 900; first compound 4 µM): 0.425
- relative viability (NCI-H1793; first compound 0.04 µM): 0.374
- relative viability (NCI-H1793; first compound 0.1265 µM): 0.463
- relative viability (NCI-H1793; first compound 0.4 µM): 0.599
- relative viability (NCI-H1793; first compound 1.265 µM): 0.499
- relative viability (NCI-H1793; first compound 4 µM): 0.463
- relative viability (LU99A; first compound 0.04 µM): 0.835
- relative viability (LU99A; first compound 0.1265 µM): 0.842
- relative viability (LU99A; first compound 0.4 µM): 0.962
- relative viability (LU99A; first compound 1.265 µM): 0.868
- relative viability (LU99A; first compound 4 µM): 0.84
- relative viability (HOP-62; first compound 0.04 µM): 0.183
- relative viability (HOP-62; first compound 0.1265 µM): 0.216
- relative viability (HOP-62; first compound 0.4 µM): 0.223
- relative viability (HOP-62; first compound 1.265 µM): 0.239
- relative viability (HOP-62; first compound 4 µM): 0.205
- relative viability (NCI-H1944; first compound 0.04 µM): 0.427
- relative viability (NCI-H1944; first compound 0.1265 µM): 0.393
- relative viability (NCI-H1944; first compound 0.4 µM): 0.476
- relative viability (NCI-H1944; first compound 1.265 µM): 0.398
- relative viability (NCI-H1944; first compound 4 µM): 0.419
